Data reported in patent publication US12649750B2, “Macrocyclic compounds, compositions, and methods of using thereof” (Sionna Therapeutics Inc., priority 2022, dated 2026).

Assays:
NBD1 = target: T1, NBD1 (Homo sapiens, UniProt P13569); experiment: Aggregation analysis using differential static light scattering (DSLS), thermal stability of NBD1 (ΔTagg); type: binding; details: ΔTagg versus DMSO control, NBD1 0.2 mg/ml
T1 construct: Purified recombinant NBD1 was produced using previously described methods; made in house
T1 sequence (P13569 423-646 limits assumed): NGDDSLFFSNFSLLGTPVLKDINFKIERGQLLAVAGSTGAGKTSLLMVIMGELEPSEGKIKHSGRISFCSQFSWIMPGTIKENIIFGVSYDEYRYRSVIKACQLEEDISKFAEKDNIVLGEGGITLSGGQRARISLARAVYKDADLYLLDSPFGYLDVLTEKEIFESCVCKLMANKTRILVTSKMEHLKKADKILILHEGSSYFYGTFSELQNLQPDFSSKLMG
Procedure, shortened: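 Purified recombinant NBD1 at 0.2 mg/ml in Tris buffer pH7.6 with 2 mM ATP, 5 mM MgCl2, 2 mM DTT and 1% glycerol was mixed with DMSO-dissolved compounds under mineral oil. Plates were heated at 1° C. per minute to 70° C., light scattering imaged every 0.5° C.; Tagg from curve inflection, minus DMSO-control mean.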

CFTR = target: T2, CFTR (Homo sapiens, UniProt P13569, DEL508-508); experiment: TECC24 AUC fold over DMSO @10 μM, CFTR-mediated transepithelial chloride transport in CF-HBE cells; type: cell-based; details: test agent AUC divided by DMSO vehicle AUC, primary CF-HBE cells, ΔF508 homozygous donor, 48 hours incubation
T2 construct: Primary human bronchial epithelial cells from a ΔF508 homozygous CF donor; host or cells: primary human bronchial epithelial cells (CF-HBE), ΔF508 homozygous donor
T2 sequence (P13569 with tags, fused parts or gaps DEL508-508): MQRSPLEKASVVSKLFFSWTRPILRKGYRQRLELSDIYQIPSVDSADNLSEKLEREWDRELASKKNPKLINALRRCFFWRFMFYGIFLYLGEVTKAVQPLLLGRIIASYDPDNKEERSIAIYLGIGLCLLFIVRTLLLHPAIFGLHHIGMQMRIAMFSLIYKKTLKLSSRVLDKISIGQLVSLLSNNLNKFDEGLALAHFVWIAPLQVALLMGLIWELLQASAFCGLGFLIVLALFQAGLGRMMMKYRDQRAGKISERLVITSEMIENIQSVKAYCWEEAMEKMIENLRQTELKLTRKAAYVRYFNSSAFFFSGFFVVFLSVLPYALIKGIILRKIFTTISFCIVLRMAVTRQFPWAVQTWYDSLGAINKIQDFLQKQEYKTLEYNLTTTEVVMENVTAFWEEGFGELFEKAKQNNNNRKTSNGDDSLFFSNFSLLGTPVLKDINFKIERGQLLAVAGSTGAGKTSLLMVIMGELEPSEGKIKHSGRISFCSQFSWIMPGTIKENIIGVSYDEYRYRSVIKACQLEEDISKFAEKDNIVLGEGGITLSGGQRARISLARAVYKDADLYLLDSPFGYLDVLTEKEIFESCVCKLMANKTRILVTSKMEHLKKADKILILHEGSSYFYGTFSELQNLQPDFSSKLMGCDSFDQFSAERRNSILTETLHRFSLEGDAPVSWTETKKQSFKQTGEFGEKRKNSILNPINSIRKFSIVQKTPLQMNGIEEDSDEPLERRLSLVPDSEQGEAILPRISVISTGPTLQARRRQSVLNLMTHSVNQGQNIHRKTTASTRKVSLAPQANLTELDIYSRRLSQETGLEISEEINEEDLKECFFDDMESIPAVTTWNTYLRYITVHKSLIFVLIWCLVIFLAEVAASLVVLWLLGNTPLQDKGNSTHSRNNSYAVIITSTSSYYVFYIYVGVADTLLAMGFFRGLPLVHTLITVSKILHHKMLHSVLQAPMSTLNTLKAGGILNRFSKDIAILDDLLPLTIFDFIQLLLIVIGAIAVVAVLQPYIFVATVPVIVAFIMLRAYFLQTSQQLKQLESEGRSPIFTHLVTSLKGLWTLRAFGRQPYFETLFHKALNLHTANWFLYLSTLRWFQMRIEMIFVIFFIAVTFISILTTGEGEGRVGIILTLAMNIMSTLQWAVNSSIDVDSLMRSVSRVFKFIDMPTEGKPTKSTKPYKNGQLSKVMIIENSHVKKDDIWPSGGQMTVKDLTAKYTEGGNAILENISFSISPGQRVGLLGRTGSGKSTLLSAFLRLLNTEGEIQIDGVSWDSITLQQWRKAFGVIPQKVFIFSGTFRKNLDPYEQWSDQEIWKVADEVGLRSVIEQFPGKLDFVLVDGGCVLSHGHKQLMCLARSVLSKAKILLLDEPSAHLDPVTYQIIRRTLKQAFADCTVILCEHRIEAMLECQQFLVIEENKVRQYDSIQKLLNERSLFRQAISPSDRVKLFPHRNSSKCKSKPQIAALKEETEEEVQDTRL
Procedure, shortened: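 ΔF508-homozygous primary bronchial epithelial cells incubated 48 h at 36.5° C with compound (10 μM) in IL-13-containing medium, then TECC24 current-clamp recording in pH 7.4 Hepes saline with benzamil 10 μM, forskolin 10 μM, then CFTR inhibitor-172 20 μM. Equivalent Cl− current AUC between forskolin and inhibitor, expressed as fold over DMSO.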

SMILES	DSLS 3D (100 μM ΔT) (NBD1)	TECC (AUC, 10 μM) (CFTR)
CC1CCC(C)(c2cccc(CCC(=O)O)c2)c2cnc([nH]2)-c2cc(ccc2F)Oc2c(F)cc3[nH]ccc3c2CCS(=O)(=O)CC1 (stereo not drawn) [Compound 42, 3-[3-(22,28-Difluoro-6,9-dimethyl-12,12-dioxo-24-oxa-12lambda6-thia-3,19,30-triazapentacyclo[23.3.1.12,5.015,23.016,20]triaconta-1(29),2,4,15,17,20,22,25,27-nonaen-6-yl)phenyl]propanoic Acid]	C (a value greater than 10 °C and less than or equal to 25 °C is marked “C”)	B (a value between 12-20 is marked “B”)
CC1(C)CCCC(C)(c2cccc(CCC(=O)O)c2)c2coc(n2)-c2cc(ccc2F)Oc2c(F)cc3[nH]ccc3c2CCS(=O)(=O)C1 (stereo not drawn) [Compound 44, 3-[3-(22,28-Difluoro-6,10,10-trimethyl-12,12-dioxo-3,24-dioxa-12lambda6-thia-19,30-diazapentacyclo[23.3.1.12,5.015,23.016,20]triaconta-1(29),2(30),4,15,17,20,22,25,27-nonaen-6-yl)phenyl]propanoic Acid]	C (a value greater than 10 °C and less than or equal to 25 °C is marked “C”)	A (a TECC value less than 12 is marked “A”)
CC1(C)CSCc2c(c(F)cc3[nH]ccc23)Oc2ccc(F)c(c2)-c2nc(c[nH]2)C(C)(c2cccc(CCC(=O)O)c2)CCCO1 (stereo not drawn) [Compound 46, 3-[3-(22,28-difluoro-6,11,11-trimethyl-10,24-dioxa-13-thia-3,19,30-triazapentacyclo[23.3.1.12,5.015,23.016,20]triaconta-1(29),2(30),4,15,17,20,22,25,27-nonaen-6-yl)phenyl]propanoic Acid]	C (a value greater than 10 °C and less than or equal to 25 °C is marked “C”)	C (a value between 20 and 80 is marked “C”)
CC1(C)C[S+]([O-])Cc2c(c(F)cc3[nH]ccc23)Oc2ccc(F)c(c2)-c2nc(c[nH]2)C(C)(c2cccc(CCC(=O)O)c2)CCCO1 (stereo not drawn) [Compound 47, 3-[3-(22,28-Difluoro-6,11,11-trimethyl-13-oxo-10,24-dioxa-13M-thia-3,19,30-triazapentacyclo[23.3.1.12,5.015,23.016,20]triaconta-1(29),2,4,15,17,20,22,25,27-nonaen-6-yl)phenyl]propanoic Acid]	C (a value greater than 10 °C and less than or equal to 25 °C is marked “C”)	B (a value between 12-20 is marked “B”)
CC1(C)CS(=O)(=O)Cc2c(c(F)cc3[nH]ccc23)Oc2ccc(F)c(c2)-c2ncc([nH]2)C(C)(c2cccc(CCC(=O)O)c2)CCCO1 (stereo not drawn) [Compound 48, 3-[3-(22,28-Difluoro-6,11,11-trimethyl-13,13-dioxo-10,24-dioxa-13λ6-thia-3,19,30-triazapentacyclo[23.3.1.12,5.015,23.016,20]triaconta-1(29),2,4,15,17,20,22,25,27-nonaen-6-yl)phenyl]propanoic Acid]	C (a value greater than 10 °C and less than or equal to 25 °C is marked “C”)	C (a value between 20 and 80 is marked “C”)
CC1(C)CCCC(C)(c2cccc(CCC(=O)O)c2)c2csc(n2)-c2cccc(c2)Oc2c(F)cc3[nH]ccc3c2CCS(=O)(=O)C1 (stereo not drawn) [Compound 50, 3-[3-(22-Fluoro-6,10,10-trimethyl-12,12-dioxo-24-oxa-3,12λ6-dithia-19,30-diazapentacyclo[23.3.1.12,5.015,23.016,20]triaconta-1(29),2(30),4,15,17,20,22,25,27-nonaen-6-yl)phenyl]propanoic Acid]	C (a value greater than 10 °C and less than or equal to 25 °C is marked “C”)	C (a value between 20 and 80 is marked “C”)
CC1(C)CCCC(C)(c2cccc(CCC(=O)O)c2)c2coc(n2)-c2cccc(c2)Oc2c(F)cc3[nH]ccc3c2CCS(=O)(=O)C1 (stereo not drawn) [Compound 51, 3-[3-(22-Fluoro-6,10,10-trimethyl-12,12-dioxo-3,24-dioxa-12λ6-thia-19,30-diazapentacyclo[23.3.1.12,5.015,23.016,20]triaconta-1(29),2(30),4,15,17,20,22,25,27-nonaen-6-yl)phenyl]propanoic Acid]	C (a value greater than 10 °C and less than or equal to 25 °C is marked “C”)	A (a TECC value less than 12 is marked “A”)
CC(CC(=O)O)c1cccc(C2CCCC(C)(C)CS(=O)(=O)CCc3c(c(F)cc4[nH]ccc34)Oc3cccc(c3)-c3ccnn32)c1 (stereo not drawn) [Compound 53, 3-[3-(23-Fluoro-11,11-dimethyl-13,13-dioxo-25-oxa-13lambda6-thia-5,6,20-triazapentacyclo[24.3.1.02,6.016,24.017,21]triaconta-1(30),2,4,16,18,21,23,26,28-nonaen-7-yl)phenyl]butanoic acid]	A (an ΔTagg value less than or equal to 5 °C is marked “A”)	A (a TECC value less than 12 is marked “A”)
CC1(C)CCCC(c2cccc(CCC(=O)O)c2)n2ccc(n2)-c2cc(ccc2F)Oc2c(F)cc3[nH]cnc3c2CCS(=O)(=O)C1 (stereo not drawn) [Compound 57, 3-[3-(22,28-Difluoro-10,10-dimethyl-12,12-dioxo-24-oxa-12λ6-thia-5,17,19,30-tetrazapentacyclo[23.3.1.12,5.015,23.016,20]triaconta-1(29),2(30),3,15,17,20,22,25,27-nonaen-6-yl)phenyl]propanoic Acid]	B (a value above 5 °C and less than or equal to 10 °C is marked “B”)	C (a value between 20 and 80 is marked “C”)
CC1(C)COCC(c2cccc(CCC(=O)O)c2)n2ccc(n2)-c2cc(ccc2F)Oc2c(F)cc3[nH]ccc3c2CCS(=O)(=O)C1 (stereo not drawn) [Compound 58, 3-[3-(22,28-Difluoro-10,10-dimethyl-12,12-dioxo-8,24-dioxa-12λ6-thia-5,19,30-triazapentacyclo[23.3.1.12,5.015,23.016,20]triaconta-1(29),2(30),3,15,17,20,22,25,27-nonaen-6-yl)phenyl]propanoic Acid]	C (a value greater than 10 °C and less than or equal to 25 °C is marked “C”)	B (a value between 12-20 is marked “B”)
CC1(C)COCCC(c2cccc(CCC(=O)O)c2)n2ccc(n2)-c2cc(ccc2F)Oc2c(F)cc3[nH]ccc3c2CS(=O)(=O)C1 (stereo not drawn) [Compound 59, 3-[3-(22,28-Difluoro-11,11-dimethyl-13,13-dioxo-9,24-dioxa-13λ6-thia-5,19,30-triazapentacyclo[23.3.1.12,5.015,23.016,20]triaconta-1(29),2(30),3,15,17,20,22,25,27-nonaen-6-yl)phenyl]propanoic Acid]	C (a value greater than 10 °C and less than or equal to 25 °C is marked “C”)	C (a value between 20 and 80 is marked “C”)
CC1(C)COCCC(c2cccc(CCC(=O)O)c2)n2nccc2-c2cc(ccc2F)Oc2c(F)cc3[nH]ccc3c2CS(=O)(=O)C1 (stereo not drawn) [Compound 60, 3-[3-(23,29-Difluoro-12,12-dimethyl-14,14-dioxo-10,25-dioxa-14λ6-thia-5,6,20-triazapentacyclo[24.3.1.02,6.016,24.017,21]triaconta-1(30),2,4,16,18,21,23,26,28-nonaen-7-yl)phenyl]propanoic Acid]	A (an ΔTagg value less than or equal to 5 °C is marked “A”)	A (a TECC value less than 12 is marked “A”)
Cn1cc2nc1-c1cc(ccc1F)Oc1c(F)cc3[nH]ccc3c1CCS(=O)(=O)CC(C)(C)CCCC2(C)c1cccc(CC(=O)O)c1 (stereo not drawn) [Compound 61, 2-[3-(22,28-Difluoro-3,6,10,10-tetramethyl-12,12-dioxo-24-oxa-12lambda6-thia-3,19,30-triazapentacyclo[23.3.1.12,5.015,23.016,20]triaconta-1(29),2(30),4,15,17,20,22,25,27-nonaen-6-yl)phenyl]acetic Acid]	C (a value greater than 10 °C and less than or equal to 25 °C is marked “C”)	B (a value between 12-20 is marked “B”)
CCn1nc2nc1-c1cc(ccc1F)Oc1c(F)cc3[nH]ccc3c1CCS(=O)(=O)CC(C)(C)CCCC2c1cccc(CCC(=O)O)c1 (stereo not drawn) [Compound 62, 3-[3-(3-Ethyl-22,28-difluoro-10,10-dimethyl-12,12-dioxo-24-oxa-12λ6-thia-3,4,19,30-tetrazapentacyclo[23.3.1.12,5.015,23.016,20]triaconta-1(29),2(30),4,15,17,20,22,25,27-nonaen-6-yl)phenyl]propanoic Acid]	C (a value greater than 10 °C and less than or equal to 25 °C is marked “C”)	C (a value between 20 and 80 is marked “C”)
Cn1nc2nc1-c1cc(ccc1F)Oc1c(F)cc3[nH]ccc3c1CCS(=O)(=O)CC(C)(C)CCCC2(C)c1cccc(CCCO)c1 (stereo not drawn) [Compound 64, 3-[3-(22,28-Difluoro-3,6,10,10-tetramethyl-12,12-dioxo-24-oxa-12λ6-thia-3,4,19,30-tetrazapentacyclo[23.3.1.12,5.015,23.016,20]triaconta-1(29),2(30),4,15,17,20,22,25,27-nonaen-6-yl)phenyl]propan-1-ol]	C (a value greater than 10 °C and less than or equal to 25 °C is marked “C”)	B (a value between 12-20 is marked “B”)
